Measurements taken from patent publication US20010055753A1, “Method to regulate CD40 signaling” (National Jewish Medical and Research Center, priority 1995, published 2001).

Assays:
p42^erk2 [1] = experiment: Immunoblot with anti-ERK2 antibody (mobility shift) in Ramos cells; format: cell-based, human; conditions: PMA 100 ng/ml or anti-IgM 10 μg/ml, anti-CD40 5 μg/ml, 0-60 min
Protocol: The human Burkitt's lymphoma cell line Ramos was obtained from the American Type Culture Collection (Rockville, Md.), and cells were maintained in RPMI-1640 supplemented with 50 units/ml penicillin-streptomycin, 2 mM glutamine, and 10% FCS. Exponentially growing cells were used in all experiments.
About 1×10^6 Ramos cells were separately treated with 10 μg/ml anti-IgM F(ab′)2 goat anti-human IgM antibody (obtained from Zymed, San Francisco, Calif.) or 5 μg/ml anti-CD40 antibody (G28-5; obtained from Dr. E. A. Clark, Washington University, Seattle, Wash.) for 0, 1, 5, 15, 30 or 60 min. Ramos cells were also treated with phorbol 12-myristate 13-acetate (PMA; obtained from Sigma, St Louis, Mo.). Immunoblot analysis was performed on each of the samples using monoclonal anti-ERK2 antibody in the following method. The treated cells were lysed in 100 μl of lysis buffer (25 mM Tris-HCl, pH 7.6, 50 mM NaCl, 0.5% Na deoxycholate, 2% NP-40, 0.2% SDS, 1 mM PMSF, 50 μg/ml aprotinin, 50 μM leupeptin). Lysates were centrifuged for 10 min at 14,000 rpm in an Eppendorf microcentrifuge, 90 μl of supernatants were mixed with 30 μl of 4×Laemmli sample buffer. Samples were boiled for 5 min. Twenty μl of prepared samples were electrophoresed through a 12% SDS-PAGE gel, and proteins were transferred to nitrocellulose membranes. […]

p42^erk2 [2] = experiment: ERK kinase assay with EGFR662-681 peptide substrate, Ramos cells; format: cell-based, human; conditions: 100 ng/ml PMA for 20 min, control about 10,000 cpm
Protocol: Kinase activity was evaluated using EGFRF662-681 peptide as a substrate as described previously (Franklin et al., J. Immunol. 153:4890-4898, 1994). Following stimulation, 10^6 cells were lysed in 75 μl of lysis buffer (70 mM β-glycerophosphate, pH 7.2, […], 2 mM MgCl2, 1 mM EGTA, 0.5% Triton X-100, 5 μg/ml leupeptin, 2 μg/ml aprotinin and 1 mM DTT) and placed on ice for 15 min. Cell lysates were centrifuged at 14,000 rpm for 10 min and 20 μl of supernatant were removed and mixed with 20 μl of 2×kinase buffer (50 mM β-glycerophosphate, pH 7.2, […], 20 mM MgCl2, […], 1 mM EGTA, 400 μM EGFR662-681 peptide, 200 μM ATP and 0.225 mCi/ml[γ-^32P] ATP [ICN Biochemicals, Costa Mesa, Calif.]). After 15 min at 30° C., 10 μl of 250 mM EDTA was added, and 45 μl of the reaction mixture was spotted onto P-81 phosphocellulose paper (Whatman, Clifton, N.J.). The papers were washed four times (5 min each) in 400 ml of 75 mM phosphoric acid and then radioactivity bound to the filter paper was determined by liquid scintillation counting.

p38 MAP kinase = experiment: p38 immunoprecipitation kinase assay with ATF-2 (1-110), neutrophils; format: cell-based; conditions: 100 ng/ml LPS, varying time intervals
Protocol: Neutrophils isolated by the plasma percoll method as previously described (Haslett, C., Am. J. Pathol. 119, 101-110; 1985) were resuspended at about 25×10^6 cells/ml in KRPD containing 0.1% Human Heat Inactivated Platelet-Poor Plasma, 1 mM PMSF, 10, μg/ml leupeptin and 10 μg/ml aprotinin. About 25×10^6 PMN were preincubated for 30 minutes at 37° C., then stimulated with 100 ng/ml LPS for varying time intervals and reactions terminated by a 20 second centrifugation at 15,000 rpm. Cell pellets were lysed with 500 μl cold RIPA (50 mM Tris pH=7.2, 150 mM NaCl, 1.1% SDS, 0.1% sodium deoxycholate, 1% Triton-X-100, 10 mM sodium pyrophosphate, 25 mM M glycerophosphate, 1 mM sodium orthovanadate and 2.1 μg/ml aprotinin), and centrifuged at 15,000 for 10 minutes at 4° C. Triton soluble lysates were initial precleared with Protein A Sepharose for 30 minutes at 4° C., followed by Protein A Sepharose immunoprecipitation with 5 μl/sample polyclonal antibodies specific for p38 and 15 μl of bead suspension, for 120 minutes at 4° C. Beads were washed once in RIPA and twice in PAN (10 mM Pipes, 100 mM NaCl, pH=7.0, and 21 μg/ml aprotinin). […] Reactions were terminated with 2×Laemelli buffer and after boiling, proteins were separated by SDS-PAGE, with quantification of activity by autoradiography and phosphorimaging, and qualitative analysis of enzyme presence and phosphorylation by Western Blotting.

| Compound | ERK2 mobility shift (bands reactive with anti-ERK2 antibody) (p42^erk2 [1]) | kinase activity (32P incorporation into EGFR662-681 peptide) (p42^erk2 [2]) | p38 MAP kinase activation (p38 MAP kinase) |
| --- | --- | --- | --- |
| CCCCCCCCCCCCCC(=O)O[C@@H]1[C@@H](C)[C@@]2(O)[C@@H](C=C(CO)C[C@]3(O)C(=O)C(C)=C[C@@H]23)[C@@H]2C(C)(C)[C@]12OC(C)=O [PMA, phorbol 12-myristate 13-acetate] | a second band with immunoreactivity to anti-ERK2 antibody appeared | about 30,000 counts per minute | – |
| lipopolysaccharide | – | – | activated |
